Reference: publication PMC9169222, “Impedance-Based Phenotypic Readout of Transporter Function: A Case for Glutamate Transporters” (Frontiers in Pharmacology, 2022)
Where a name gives a salt, the structure may show the parent alone.

Assays:
[1] = biological target: T1, EAAT1 / mGluR2 (JumpIn-EAAT1-mGluR2 cells) (Homo sapiens, UniProt P43003); assay: Impedance-based TRACT assay (xCELLigence) on JumpIn-EAAT1-mGluR2 cells; assay type: cell-based
T1 construct: FLAG-tag (N); expressed in transfected cells; host or cells: Jump In T-REx HEK 293 (JumpIn-EAAT1), transiently transfected with mGluR2 cDNA

[2] = test system: EAAT1 / mGluR2 (JumpIn-EAAT1-mGluR2 cells); assay: as above; assay type: cell-based, human; settings: for Substrate pEC50 ± SEM (AUC = 0–15 min): JumpIn-EAAT1-mGluR2, +dox
[3] = biological target: T2, EAAT1 (JumpIn-EAAT1 cells) (Homo sapiens, UniProt P43003); assay: Impedance-based phenotypic assay (xCELLigence) on JumpIn-EAAT1 cells; assay type: cell-based; settings: net AUC 0–120 min
T2 construct: expressed in transfected cells; host or cells: Jump In T-REx HEK 293
Description: In short, cells are cultured in medium on gold-plated electrodes in microwell E-plates.
Assays were performed at 37°C and 5% CO2 in 96-well PET E-plates in a total volume of 100 µl per well. Prior to cell seeding, the baseline impedance (Z0) was measured in the recording station in 40 µl (two compound additions) or 45 µl (one compound addition) medium in the presence (+) or absence (−) of 1 μg/ml dox. All compounds were diluted in phosphate-buffered saline (PBS) and added in 5 µl per addition using a VIAFLO 96 handheld electronic 96 channel pipette (INTEGRA Biosciences, Tokyo, Japan). When DMSO was used as a solvent for a compound, the final amount of DMSO was kept at 0.1% per well and was included in the vehicle (PBS/DMSO). All conditions were tested at two technical replicates per plate.
Transiently transfected JumpIn-EAAT1 cells were detached using only PBS/EDTA. The E-plate was left to rest at room temperature for 30 min prior to replacement in the recording station at 37°C and 5% CO2. Cell growth was recorded overnight for 22 h. If a pretreatment was required for the experiment, the cells were pretreated after 22 h with either a concentration of inhibitor or vehicle (PBS/DMSO) and cells were monitored for 60 min. For GPCR antagonist experiments, a maximum concentration of LY341495 (1 µM) was used. […] After the pretreatment, cells were stimulated with substrate or vehicle (PBS). […] After stimulation the impedance was measured for at least 2 h. […] Properly washed plates were re-used up to two times.
Experimental data was recorded using RTCA Software v2.0 or v2.1.1 (ACEA Biosciences). In the RTCA Software CI values were normalized to the time point prior to substrate/agonist stimulation resulting in normalized Cell Index (nCI) values. The nCI data were exported and subsequent analyses and data visualizations were done using GraphPad Prism v9 (GraphPad Software, San Diego, CA, United States). In all experiments, nCI values of vehicle-only conditions were subtracted from all other conditions to correct for vehicle-induced, substrate-independent effects. […] The potency values of substrates and inhibitory potencies of EAAT inhibitors were determined by fitting the net AUC data to a sigmoidal concentration-effect curve with a variable slope.

[4] = biological target: T3, EAAT5 (JumpIn-EAAT5 cells) (Homo sapiens, UniProt O00341); assay: Impedance-based phenotypic assay on JumpIn-EAAT5 cells; assay type: cell-based; settings: JumpIn-EAAT5, 1 mM L-glu, p = 0.0032
T3 construct: expressed in transfected cells; host or cells: Jump In T-REx HEK 293
Description: Label-free whole-cell assays, based on cell-induced changes in impedance, were performed using the xCELLigence real-time cell analyzer (RTCA) system (ACEA Biosciences, San Diego, CA, United States) as described previously ([Vlachodimou et al., 2019]; [Sijben et al., 2021a], [2021b]). In short, cells are cultured in medium on gold-plated electrodes in microwell E-plates. Per well impedance is continuously measured at 10 kHz and is converted to the unitless parameter Cell Index (CI) by the following formula: CI=(Zi−Z0)Ω/15Ω where Zi is the impedance at any given time point and Z0 is the baseline impedance measured at the start of each experiment ([Kho et al., 2015]).
Assays were performed at 37°C and 5% CO2 in 96-well PET E-plates in a total volume of 100 µl per well. Prior to cell seeding, the baseline impedance (Z0) was measured in the recording station in 40 µl (two compound additions) or 45 µl (one compound addition) medium in the presence (+) or absence (−) of 1 μg/ml dox. […]
On the day of the experiment, JumpIn-EAAT cells grown to 70–80% confluence were trypsinized (0.25% trypsin in PBS/EDTA), counted and seeded in the E-plate in a volume of 50 μl at 60,000 cells/well. […] Cell growth was recorded overnight for 22 h. […] After stimulation the impedance was measured for at least 2 h. […]
Experimental data was recorded using RTCA Software v2.0 or v2.1.1 (ACEA Biosciences). […]

T2 sequence (P43003 whole entry): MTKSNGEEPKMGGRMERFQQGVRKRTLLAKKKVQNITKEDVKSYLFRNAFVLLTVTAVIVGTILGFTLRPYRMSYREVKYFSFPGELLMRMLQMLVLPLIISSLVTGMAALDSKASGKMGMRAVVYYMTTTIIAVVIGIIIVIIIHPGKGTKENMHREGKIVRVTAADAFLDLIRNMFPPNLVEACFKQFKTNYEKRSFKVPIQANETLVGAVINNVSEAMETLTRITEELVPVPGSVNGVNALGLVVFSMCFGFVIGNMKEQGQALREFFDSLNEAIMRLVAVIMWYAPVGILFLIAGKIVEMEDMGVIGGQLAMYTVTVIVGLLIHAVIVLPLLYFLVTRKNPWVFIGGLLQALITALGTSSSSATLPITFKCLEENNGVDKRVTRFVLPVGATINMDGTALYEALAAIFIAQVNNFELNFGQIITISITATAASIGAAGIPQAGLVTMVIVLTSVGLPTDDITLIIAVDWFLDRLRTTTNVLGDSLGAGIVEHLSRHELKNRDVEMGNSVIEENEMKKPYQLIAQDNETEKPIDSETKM
T3 sequence (O00341 whole entry): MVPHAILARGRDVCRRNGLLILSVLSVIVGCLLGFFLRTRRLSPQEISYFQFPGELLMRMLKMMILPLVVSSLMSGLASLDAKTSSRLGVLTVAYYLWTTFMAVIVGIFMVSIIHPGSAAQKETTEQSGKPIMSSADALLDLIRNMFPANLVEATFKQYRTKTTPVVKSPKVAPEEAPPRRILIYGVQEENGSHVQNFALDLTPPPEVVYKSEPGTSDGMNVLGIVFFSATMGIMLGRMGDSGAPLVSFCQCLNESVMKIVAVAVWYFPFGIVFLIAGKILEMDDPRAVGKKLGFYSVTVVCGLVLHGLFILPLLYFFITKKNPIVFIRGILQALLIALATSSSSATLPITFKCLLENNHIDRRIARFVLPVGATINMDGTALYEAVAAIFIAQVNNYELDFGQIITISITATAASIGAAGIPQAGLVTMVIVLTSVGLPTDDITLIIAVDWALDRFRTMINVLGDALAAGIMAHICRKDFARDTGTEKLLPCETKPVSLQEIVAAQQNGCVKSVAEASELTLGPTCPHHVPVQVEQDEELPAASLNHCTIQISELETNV
T1 sequence (P43003 whole entry, the tested form may be a part): as the sequence (P43003 whole entry) above

N[C@@H](CCC(=O)O)C(=O)O [L-glutamate, L-glutamic acid monosodium salt monohydrate]
EC50 [1]: 501 µM
Substrate pEC50 ± SEM (AUC = 0–15 min) ([2]; no inhibitor, net AUC 0–15 min): <3.0
Substrate pEC50 ± SEM (AUC = 0–15 min) ([2]; pretreated 1 h with 10 µM UCPH-101, net AUC 0–15 min): 3.7 ± 0.2
Substrate pEC50 ± SEM (AUC = 0–120 min) ([2]; JumpIn-EAAT1-mGluR2, −dox, no inhibitor, net AUC 0–120 min): 4.3 ± 0.1
Substrate pEC50 ± SEM ([3]; JumpIn-EAAT1, +dox): 3.4 ± 0.0
EC50 ([3]; JumpIn-EAAT1, −dox, read-out: Substrate pEC50 ± SEM (converted)): 63.1 µM
Response in dox-induced vs non-induced cells [4]: significantly higher
